Assay results from patent US9345793B2, “Compounds for binding to the platelet specific glycoprotein IIB/IIIA and their use for imaging of thrombi” (PIRAMAL IMAGING SA, priority 2011, dated 2016).
pIC50: −log10 of the molar value. Like-named read-outs stand apart in the source and are kept apart here.

How the values were obtained:
monkey microsomes = experiment: In vitro metabolic stability in liver microsomes, monkey; format: in vitro ADME; conditions: Cynomolgus, female, calculated
Procedure: (§1) The incubation concentration was 0.3 μM. […] The samples were frozen over night at −20° C.

[1] = Plasma protein binding by equilibrium dialysis, monkey plasma; format: in vitro ADME; conditions: plasma (10% in buffer), Cynomolgus, read-out: Fu (Mari)
Procedure: (§2) The determination of the plasma protein binding of compounds was performed by means of an equilibrium dialysis in a 96-well HT plate. Solutions of test compound (0.3 μM and 3 μM) were prepared in buffer (50 mM phosphate buffer) and 10% plasma. A 96 well HT dialysis plate (Teflon) was assembled so that each well was divided in two compartments by a semi-permeable cellulose membrane (regenerated Cellulose, MWCO 12-14K). The phosphate buffer solution (150 μL) was added to one side of the membrane and the plasma solution to the other side (150 μL). The compounds were added to the plasma solution side and were incubated at 37 degree. The unbound fraction of the compound could pass through the membrane and equilibrium between the two sides could be reached (6-8 h, 37° C.). Both solutions were analyzed for each compound (plasma-free and plasma-containing) by LC-MS. Both solutions for each compound were diluted with buffer or plasma to reach the same matrix (10% plasma) for analysis and were precipitated by the addition of methanol. The fraction unbound (Fu) was calculated as the quotient of the equilibrium concentrations of the compound in plasma-free and plasma-containing solution.

Human liver microsomes = experiment: In vitro metabolic stability in liver microsomes, human; format: in vitro ADME; conditions: both, 0.3 μM, pH 7.4
Procedure: as §1

rat microsomes = experiment: In vitro metabolic stability in liver microsomes, rat; format: in vitro ADME; conditions: Wistar, male, calculated
Procedure: as §1

[2] = Plasma protein binding by equilibrium dialysis, human plasma; format: in vitro ADME; conditions: plasma (10% in buffer), Caucasian, read-out: Fu (Mari)
Procedure: as §2

[3] = target: human GPIIb/IIIa receptor (Homo sapiens (Human), UniProt P05106+P08514); experiment: Affinity assay: displacement of tritiated reference compound from immobilized purified GPIIb/IIIa; format: binding
Procedure: Affinity assay: In the first step human GPIIb/IIIa purified from human platelets was immobilized on a 96-well solid plate. After 48 hours the plates were washed and the unspecific binding sites were blocked with Roti®-Block. 2. In the next step, the plates were simultaneously incubated with a tritium labeled known GPIIb/IIIa binder (^3H) mixed with increasing concentrations of the novel small molecule compounds (inhibitor, ^19F). The higher the affinity of the inhibitor, the lower the bound fraction of the tritiated known GPIIb/IIIa binder (^3H) was. The fraction of tritiated compound (^3H), which is not displaced by inhibitor, was measured in a microplate scintillation counter.
Purified human glycoprotein IIb/IIIa (20 mM Tris-HCl, 0.1 M NaCl, 0.1% Triton X-100, 1 mM CaCl2, 0.05% NaN3, 50% Glycerol, pH 7.4) was purchased from Enzyme Research Laboratories Inc. (South Bend, Ind.). The GPIIb/IIIa receptor was diluted in phosphate-buffered saline (Dulbecco's Phosphate Buffered Saline (D-PBS(+)) with calcium and magnesium, GIBCO®, Invitrogen) with 0.01% bovine serum albumin (albumin from bovine serum—lyophilized powder, ≧96%, Sigma).
The GPIIb/IIIa receptor was immobilized 48 hours at least (100 μL per well, 48 to maximum 96 hours) on a 96-well solid plate (Immuno Plate MaxiSorp™, Nunc, Roskilde, Denmark) at 277 K to 280 K and at a concentration of 0.1 μg per well to 1 μg per well. As negative control one row of the plate (n=8) was incubated just with 2% bovine serum albumin (200 μper well, albumin from bovine serum—lyophilized powder, […], Sigma, diluted in D-PBS(+)). After washing three times with the wash buffer (230 μL per well, Dulbecco's Phosphate Buffered Saline (D-PBS (−)) contains no calcium or magnesium, GIBCO®, Invitrogen) residual exposed plastic and unspecific binding sites were blocked by incubating the plate with a special blocking solution (200 μL per well, Roti®-Block, Carl Roth GmbH Co KG, Karlsruhe) containing 2% bovine serum albumin (Albumin from bovine serum—lyophilized powder, ≧96%, Sigma) 1 hour at room temperature.
After washing three times with the wash buffer 50 μL of tritiated reference compound (60 nM, ^3H-labeled compound) and 50 μL of novel compound (inhibitor, ^19F) were simultaneously added to each well and incubated for 1 hour at room temperature. Several concentrations of each novel inhibitor (0.1, 1, 2, 5, 10, 20 50, 100, 200, 500, 1000, 2000, 5000, 10000 and 20000 nM) were investigated. At each concentration of inhibitor a fourfold determination was performed.
The maximum value of tritiated reference compound was determined without addition of inhibitor (n=8). To exclude unspecific binding of ^3H-reference compound wells without glycoprotein receptors were used as negative controls (n=12, identically treated just without GP IIb/IIIa receptors).
After one hour the plate was washed three times with phosphate-buffered saline (200 μL per well, Dulbecco's Phosphate Buffered Saline (D-PBS(+)), GIBCO®, Invitrogen). Following 140 μL of liquid scintillation cocktail (MicroScint™ 40 aqueous, Perkin Elmer) was added to each well. After 15 min at room temperature the plates were measured at the microplate scintillation counter (TopCount NXT v2.13, Perkin Elmer, Packard Instrument Company).
In the first step human glycoprotein IIb/IIIa, which is purified from human platelets, was immobilized on a 96-well solid plate. After 48 hours at least the plates were washed and the unspecific binding sites were blocked with Roti®-Block. In the next step, the plates were simultaneously incubated with a tritium labeled reference compound and the novel small molecule compound (inhibitor). The higher the affinity of the inhibitor, the smaller is the bound fraction of reference compound. The fraction of tritiated reference compound, which is not displaced by inhibitor, was measured at a microplate scintillation counter.

mouse microsomes = experiment: In vitro metabolic stability in liver microsomes, mouse; format: in vitro ADME; conditions: NMRI, female, calculated
Procedure: as §1

[4] = In vitro metabolic stability in liver microsomes, human; format: in vitro ADME; conditions: pH 7.4
Procedure: as §1

[5] = 19F compounds vs 60 nM 3H-labeled reference compound, 1 hour at room temperature, read-out: IC50 human
[6] = values repeated beside the 18F-compound, read-out: IC50 human (corresponding 19F-compound, Table 2)

human GPIIb/IIIa receptor, sequence (P08514 32-887): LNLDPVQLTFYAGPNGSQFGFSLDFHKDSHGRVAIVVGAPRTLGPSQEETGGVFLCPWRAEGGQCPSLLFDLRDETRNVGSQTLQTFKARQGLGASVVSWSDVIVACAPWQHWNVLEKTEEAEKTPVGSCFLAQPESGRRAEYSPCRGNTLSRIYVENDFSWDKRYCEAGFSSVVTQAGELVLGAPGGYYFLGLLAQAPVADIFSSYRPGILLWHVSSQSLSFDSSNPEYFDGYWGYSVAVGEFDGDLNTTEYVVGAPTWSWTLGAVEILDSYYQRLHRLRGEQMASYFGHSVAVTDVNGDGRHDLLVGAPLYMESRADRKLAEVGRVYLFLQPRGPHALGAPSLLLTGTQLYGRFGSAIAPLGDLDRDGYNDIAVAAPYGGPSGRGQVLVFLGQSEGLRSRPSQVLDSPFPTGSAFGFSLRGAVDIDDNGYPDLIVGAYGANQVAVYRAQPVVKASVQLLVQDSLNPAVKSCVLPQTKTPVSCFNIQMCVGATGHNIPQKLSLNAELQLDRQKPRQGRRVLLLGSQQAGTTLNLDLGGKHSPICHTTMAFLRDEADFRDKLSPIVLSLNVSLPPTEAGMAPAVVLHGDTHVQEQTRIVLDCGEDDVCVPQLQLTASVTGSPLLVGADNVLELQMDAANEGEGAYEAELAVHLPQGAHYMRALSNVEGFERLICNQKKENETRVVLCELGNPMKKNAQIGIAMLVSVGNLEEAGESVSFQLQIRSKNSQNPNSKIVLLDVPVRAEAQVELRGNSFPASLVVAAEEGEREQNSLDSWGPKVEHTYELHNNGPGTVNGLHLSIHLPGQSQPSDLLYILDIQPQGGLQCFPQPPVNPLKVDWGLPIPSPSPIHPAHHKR
human GPIIb/IIIa receptor, sequence (P08514 891-1039 partner): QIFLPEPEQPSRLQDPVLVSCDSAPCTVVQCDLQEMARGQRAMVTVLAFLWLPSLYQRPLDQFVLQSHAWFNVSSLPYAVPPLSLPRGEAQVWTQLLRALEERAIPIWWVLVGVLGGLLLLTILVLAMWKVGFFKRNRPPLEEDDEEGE
human GPIIb/IIIa receptor, sequence (P05106 27-788): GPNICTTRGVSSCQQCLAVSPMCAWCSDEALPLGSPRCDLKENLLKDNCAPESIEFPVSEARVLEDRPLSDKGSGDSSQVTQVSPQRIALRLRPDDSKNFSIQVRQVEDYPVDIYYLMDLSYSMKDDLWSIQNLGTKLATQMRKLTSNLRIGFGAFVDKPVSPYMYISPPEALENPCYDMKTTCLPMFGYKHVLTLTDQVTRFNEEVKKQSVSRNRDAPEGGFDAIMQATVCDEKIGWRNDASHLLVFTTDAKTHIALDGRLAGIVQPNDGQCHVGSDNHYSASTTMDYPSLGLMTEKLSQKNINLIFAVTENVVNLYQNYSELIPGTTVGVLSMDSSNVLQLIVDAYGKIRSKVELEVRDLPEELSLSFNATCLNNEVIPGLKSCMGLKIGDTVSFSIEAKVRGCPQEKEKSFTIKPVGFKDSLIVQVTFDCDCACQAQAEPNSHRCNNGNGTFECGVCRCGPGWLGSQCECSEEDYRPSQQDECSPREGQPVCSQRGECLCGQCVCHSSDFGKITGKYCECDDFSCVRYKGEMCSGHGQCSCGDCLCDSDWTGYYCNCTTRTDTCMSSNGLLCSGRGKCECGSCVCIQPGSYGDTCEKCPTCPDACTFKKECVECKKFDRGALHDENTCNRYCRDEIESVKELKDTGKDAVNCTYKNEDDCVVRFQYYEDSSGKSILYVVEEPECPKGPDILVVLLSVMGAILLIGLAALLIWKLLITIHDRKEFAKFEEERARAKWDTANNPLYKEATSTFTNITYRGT

CLblood (monkey microsomes) [mL/day/kg]	fraction unbound at 0.3 μM [1]	fraction unbound at 3 μM [1]	CLblood (Human liver microsomes) [mL/day/kg]	CLblood (rat microsomes) [mL/day/kg]	fraction unbound at 0.3 μM [2]	fraction unbound at 3 μM [2]	pIC50 [3, 5]	pIC50 [3, 6]	CLblood (mouse microsomes) [mL/day/kg]	recovery at 60 min, 0.3 μM [4] [%]	SMILES
2.4	0.99	0.93	2.4	2.4	0.91	0.9	7.00	7.00			O=C(O)C[C@H](NC(=O)[C@@H]1CCCN(C(=O)CCC2CCNCC2)C1)c1cccc(OCCF)c1 [Example 1, (3S)-3-[3-(2-Fluoroethoxy)phenyl]-3-[({(3R)-1-[3-(piperidin-4-yl)propanoyl]piperidin-3-yl}carbonyl)amino]propanoic acid]
2.4	1	1	2.4	2.4	0.96	1	7.70	7.70	2.4	~100	O=C(O)C[C@H](NC(=O)[C@@H]1CCCN(C(=O)CCC2CCNCC2)C1)c1cncc(OCCF)c1 [Example 3, (3S)-3-[5-(2-Fluoroethoxy)pyridin-3-yl]-3-[({(3R)-1-[3-(piperidin-4-yl)propanoyl]-piperidin-3-yl}carbonyl)amino]propanoic acid]
